From US10815238B2, “Antimicrobial compounds and methods of making and using the same” (BIOVERSYS AG, priority 2013, dated 2020)

Each molecule was assayed on Eschericia coli (E. coli) strain ATCC25922 (assay: Standard microdilution assay, MIC against E. coli ATCC25922). Conditions: Escherichia coli; E. coli strain ATCC25922, standard microdilution assay; cutoff 16 micrograms/mL; read-out: MIC E. Coli.
Assay type: cell-based
Procedure: The in vitro activity of the compounds of the present invention can be determined. Antimicrobial testing is typically performed to determine the minimum inhibitory concentration (MIC). Minimum inhibitory concentrations (MICs) are determined by the microdilution method in a final volume of 100 μl according to protocols outlined by The Clinical and Laboratory Standards Institute (CLSI). Performance standards for reference strains are assessed within the same experimental design to maintain quality control. See, for example, Clinical Laboratory Standards Institute: Methods for dilution antimicrobial susceptibility tests for bacteria that grow aerobically M7-A8. Approved Standard-Eighth Edition. Wayne, Pa.: CLSI; December 2008; and Clinical Laboratory Standards Institute: Performance Standards for Antimicrobial Susceptibility Testing M100-S20; Approved Standard-Twentieth Edition. Wayne, Pa.: CLSI; June 2010.
The compounds of the present invention were tested for antimicrobial activity. The Compounds 1-582 were run against Eschericia coli (E. coli) strain ATCC25922 and Compounds 320-582 were run against Staphylococcus aureus (S. aureus) 11540 strain using a standard microdilution assay to determine minimum inhibitory concentrations (MICs). […] It will be recognized by one skilled in the art that the compounds can be assessed against other bacterial organisms and that the presentation of data for activity against Eschericia coli and Staphylococcus aureus are illustrative and in no way is intended to limit the scope of the present invention. The compounds of the present invention can be assayed against a range of other microorganisms depending upon the performance activity desired to be gathered. Furthermore, the “+” and “−” representation and the selection of a cutoff value of 16 micrograms/mL is also illustrative and in no way is intended to limit the scope of the present invention.
C[C@H](N)CCCc1cc(-c2cc3cn(-c4ccc([C@@H](CO)NCCCNC(=N)N)cc4)c(=O)nc3[nH]2)cc(C(F)(F)F)c1 [Compound 51] showed an MIC of under 16 µg/mL.
Molecule C[C@H](N)CCCc1cc(-c2cc3cn(-c4ccc(CN5CCCN(C(=N)N)CC5)cc4)c(=O)nc3[nH]2)cc(C(F)(F)F)c1 [Compound 52] has an MIC of under 16 µg/mL.
N=C(N)NCCCNCc1ccc(-n2cc3cc(-c4ccc(/C=N/OCCNC(=N)N)cc4)[nH]c3nc2=O)cc1 [Compound 53] was tested, and the MIC was under 16 µg/mL.
Molecule N=C(N)N1CCN(Cc2ccc(-n3cc4cc(-c5ccc(C(NC6CN(C(=N)N)C6)C(F)(F)F)cc5)[nH]c4nc3=O)cc2)CC1 (centres unmarked) [Compound 54] has an MIC of under 16 µg/mL.
C[C@H](NCCCNC(=N)N)c1ccc(-n2cc3cc(-c4cc(CO[C@H](CN)CO)cc(SC(F)(F)F)c4)[nH]c3nc2=O)cc1 [Compound 55] gave an MIC of under 16 µg/mL.
In the case of C[C@H](N)CCCc1cc(Cl)c(F)c(-c2cc3cn(-c4ccc([C@H](Cc5cccnc5)NCCCNC(=N)N)cc4)c(=O)nc3[nH]2)c1 [Compound 56], the MIC is reported as under 16 µg/mL.
C[C@H](N)CCCc1cc(SC(F)(F)F)cc(-c2cc3cn(-c4ccc([C@H](Cc5cccnc5)NCCCNC(=N)N)cc4)c(=O)nc3[nH]2)c1 [Compound 57] showed an MIC of under 16 µg/mL.
Work on C[C@H](N)CCCc1cc(SC(F)(F)F)cc(-c2cc3cn(-c4ccc([C@@H](NCCCNC(=N)N)C(N)=O)cc4)c(=O)nc3[nH]2)c1 [Compound 58] yielded an MIC of under 16 µg/mL.
With C[C@H](N)CCCc1cc(-c2cc3cn(-c4ccc([C@@H](NCCCNC(=N)N)C(N)=O)cc4)c(=O)nc3[nH]2)cc(C(F)(F)F)c1 [Compound 59] the MIC was under 16 µg/mL.
C[C@H](N)CCCc1cc(-c2cc3cn(-c4ccc([C@@H](NCCCNC(=N)N)c5ccc(S(C)(=O)=O)cc5)cc4)c(=O)nc3[nH]2)cc(C(F)(F)F)c1 [Compound 60] was tested, and the MIC was over 16 µg/mL.
C[C@H](N)CCCc1cc(Cl)c(F)c(-c2cc3cn(-c4ccc([C@@H](NCCCNC(=N)N)c5cccnc5)cc4)c(=O)nc3[nH]2)c1 [Compound 61] was tested, and the MIC was under 16 µg/mL.
With C[C@H](N)CCCc1cc(-c2cc3cn(-c4cccc(CCNCCCNC(=N)N)c4)c(=O)nc3[nH]2)cc(C(F)(F)F)c1 [Compound 62] the MIC was under 16 µg/mL.
Work on C=C[C@H](N)COCc1cc(SC(F)(F)F)cc(-c2cc3cn(-c4ccc([C@H](C)NCCCNC(=N)N)cc4)c(=O)nc3[nH]2)c1 [Compound 63] yielded an MIC of under 16 µg/mL.
CC[C@H](N)COCc1cc(SC(F)(F)F)cc(-c2cc3cn(-c4ccc([C@H](C)NCCCNC(=N)N)cc4)c(=O)nc3[nH]2)c1 [Compound 64] showed an MIC of under 16 µg/mL.
C[C@H](N)CC[C@@H](O)c1cc(SC(F)(F)F)cc(-c2cc3cn(-c4ccc([C@H](C)NCCCNC(=N)N)cc4)c(=O)nc3[nH]2)c1 [Compound 65] gave an MIC of under 16 µg/mL.
C[C@H](N)CCCc1cc(SC(F)(F)F)cc(-c2cc3cn(-c4ccc([C@@H](NCCCNC(=N)N)c5cccnc5)cc4)c(=O)nc3[nH]2)c1 [Compound 66] showed an MIC of under 16 µg/mL.
Work on C[C@H](NCCCNC(=N)N)c1ccc(-n2cc3cc(-c4cc(CCC[C@H](C)NC(=O)OCc5ccccc5)cc(Cl)c4F)[nH]c3nc2=O)cc1 [Compound 67] yielded an MIC of under 16 µg/mL.
For C[C@H](N)CC[C@H](O)c1cc(SC(F)(F)F)cc(-c2cc3cn(-c4ccc([C@H](C)NCCCNC(=N)N)cc4)c(=O)nc3[nH]2)c1 [Compound 68], the MIC was under 16 µg/mL.
In the case of C[C@H](N)CCCc1cc(Cl)c(F)c(-c2cc3cn(-c4ccc([C@@H](CCc5ccncc5)NCCCNC(=N)N)cc4)c(=O)nc3[nH]2)c1 [Compound 69], the MIC is reported as under 16 µg/mL.
In the case of COC(=O)N[C@@H](C)CCCc1cc(Cl)c(F)c(-c2cc3cn(-c4ccc([C@H](C)NCCCNC(=N)N)cc4)c(=O)nc3[nH]2)c1 [Compound 70], the MIC is reported as under 16 µg/mL.
CCOC(=O)N[C@@H](C)CCCc1cc(Cl)c(F)c(-c2cc3cn(-c4ccc([C@H](C)NCCCNC(=N)N)cc4)c(=O)nc3[nH]2)c1 [Compound 71] showed an MIC of under 16 µg/mL.
Molecule C[C@H](NCCCNC(=N)N)c1ccc(-n2cc3cc(-c4cc(CCC[C@H](C)NC(=O)CN)cc(Cl)c4F)[nH]c3nc2=O)cc1 [Compound 72] has an MIC of under 16 µg/mL.
Work on C[C@H](N)CCCc1cc(-c2cc3cn(-c4ccc([C@H](CCF)NCCCNC(=N)N)cc4)c(=O)nc3[nH]2)cc(C(F)(F)F)c1 [Compound 73] yielded an MIC of under 16 µg/mL.
C[C@H](N)CCCc1cc(Cl)c(F)c(-c2cc3cn(-c4ccc([C@H](CCF)NCCCNC(=N)N)cc4)c(=O)nc3[nH]2)c1 [Compound 74] was tested, and the MIC was under 16 µg/mL.
C[C@H](N)CCCc1cc(SC(F)(F)F)cc(-c2cc3cn(-c4ccc([C@H](CCF)NCCCNC(=N)N)cc4)c(=O)nc3[nH]2)c1 [Compound 75] showed an MIC of under 16 µg/mL.
With CC(=O)N[C@@H](C)CCCc1cc(Cl)c(F)c(-c2cc3cn(-c4ccc([C@H](C)NCCCNC(=N)N)cc4)c(=O)nc3[nH]2)c1 [Compound 76] the MIC was over 16 µg/mL.
CC[C@@H](N)COCc1cc(SC(F)(F)F)cc(-c2cc3cn(-c4ccc([C@H](C)NCCCNC(=N)N)cc4)c(=O)nc3[nH]2)c1 [Compound 77] gave an MIC of under 16 µg/mL.
C=C[C@H](N)CC[C@@H](O)c1cc(SC(F)(F)F)cc(-c2cc3cn(-c4ccc([C@H](C)NCCCNC(=N)N)cc4)c(=O)nc3[nH]2)c1 [Compound 78] showed an MIC of under 16 µg/mL.
C=C[C@@H](N)CC[C@@H](O)c1cc(SC(F)(F)F)cc(-c2cc3cn(-c4ccc([C@H](C)NCCCNC(=N)N)cc4)c(=O)nc3[nH]2)c1 [Compound 79] showed an MIC of under 16 µg/mL.
C[C@H](NCCCNC(=N)N)c1ccc(-n2cc3cc(-c4cc(COC[C@@H](N)CO)cc(SC(F)(F)F)c4)[nH]c3nc2=O)cc1 [Compound 80] gave an MIC of under 16 µg/mL.
For C=CCC[C@H](NCCCNC(=N)N)c1ccc(-n2cc3cc(-c4cc(CCC[C@H](C)N)cc(Cl)c4F)[nH]c3nc2=O)cc1 [Compound 81], the MIC was under 16 µg/mL.
Work on C=CCC[C@H](NCCCNC(=N)N)c1ccc(-n2cc3cc(-c4cc(CCC[C@H](C)N)cc(SC(F)(F)F)c4)[nH]c3nc2=O)cc1 [Compound 82] yielded an MIC of under 16 µg/mL.
CSC[C@H](N)COCc1cc(SC(F)(F)F)cc(-c2cc3cn(-c4ccc([C@H](C)NCCCNC(=N)N)cc4)c(=O)nc3[nH]2)c1 [Compound 83] was tested, and the MIC was under 16 µg/mL.
C[C@H](N)CCCc1cc(-c2cc3cn(-c4ccc([C@@H](NCCCNC(=N)N)c5cccnc5)cc4)c(=O)nc3[nH]2)cc(C(F)(F)F)c1 [Compound 84] was tested, and the MIC was under 16 µg/mL.
For C[C@H](N)CCCc1cc(Cl)c(F)c(-c2cc3cn(-c4ccc([C@H](CCNc5nccs5)NCCCNC(=N)N)cc4)c(=O)nc3[nH]2)c1 [Compound 85], the MIC was under 16 µg/mL.
Work on C[C@H](N)CCCc1cc(SC(F)(F)F)cc(-c2cc3cn(-c4ccc([C@@H](CCc5ccncc5)NCCCNC(=N)N)cc4)c(=O)nc3[nH]2)c1 [Compound 86] yielded an MIC of under 16 µg/mL.
Molecule C[C@H](N)CCCc1cc(Cl)c(F)c(-c2cc3cn(-c4ccc([C@H](Cn5ccnn5)NCCCNC(=N)N)cc4)c(=O)nc3[nH]2)c1 [Compound 87] has an MIC of under 16 µg/mL.
C[C@H](N)CCCc1cc(SC(F)(F)F)cc(-c2cc3cn(-c4ccc([C@H](Cn5ccnn5)NCCCNC(=N)N)cc4)c(=O)nc3[nH]2)c1 [Compound 88] showed an MIC of under 16 µg/mL.
N=C(N)NCCCNCc1cccc(-n2cc3cc(-c4ccc(C(NC5CN(C(=N)N)C5)C(F)(F)F)cc4)[nH]c3nc2=O)c1 (centres unmarked) [Compound 89] showed an MIC of under 16 µg/mL.
C[C@H](N)CCCc1cc(Cl)c(F)c(-c2cc3cn(-c4cccc(CNCCCNC(=N)N)c4)c(=O)nc3[nH]2)c1 [Compound 90] showed an MIC of under 16 µg/mL.
C=C[C@H](N)CC[C@H](O)c1cc(SC(F)(F)F)cc(-c2cc3cn(-c4ccc([C@H](C)NCCCNC(=N)N)cc4)c(=O)nc3[nH]2)c1 [Compound 91] showed an MIC of under 16 µg/mL.
